Test results published in ChEMBL document CHEMBL4622883, “Bisbenzylisoquinoline alkaloids and P-glycoprotein function: A structure activity relationship study” (Bioorg Med Chem, 2020).

Tests used:
Type in all cases: cell-based
[1] = biological target: T1, ATP-dependent translocase ABCB1 (Homo sapiens, UniProt P08183); test: Inhibition of P-glycoprotein-mediated Rhodamine-123 efflux in human MOLT4/DNR cells assessed as inhibition of P-glycoprotein efflux function at 1 uM incubated for 1 hr by flow cytometry
T1 sequence (P08183 whole entry): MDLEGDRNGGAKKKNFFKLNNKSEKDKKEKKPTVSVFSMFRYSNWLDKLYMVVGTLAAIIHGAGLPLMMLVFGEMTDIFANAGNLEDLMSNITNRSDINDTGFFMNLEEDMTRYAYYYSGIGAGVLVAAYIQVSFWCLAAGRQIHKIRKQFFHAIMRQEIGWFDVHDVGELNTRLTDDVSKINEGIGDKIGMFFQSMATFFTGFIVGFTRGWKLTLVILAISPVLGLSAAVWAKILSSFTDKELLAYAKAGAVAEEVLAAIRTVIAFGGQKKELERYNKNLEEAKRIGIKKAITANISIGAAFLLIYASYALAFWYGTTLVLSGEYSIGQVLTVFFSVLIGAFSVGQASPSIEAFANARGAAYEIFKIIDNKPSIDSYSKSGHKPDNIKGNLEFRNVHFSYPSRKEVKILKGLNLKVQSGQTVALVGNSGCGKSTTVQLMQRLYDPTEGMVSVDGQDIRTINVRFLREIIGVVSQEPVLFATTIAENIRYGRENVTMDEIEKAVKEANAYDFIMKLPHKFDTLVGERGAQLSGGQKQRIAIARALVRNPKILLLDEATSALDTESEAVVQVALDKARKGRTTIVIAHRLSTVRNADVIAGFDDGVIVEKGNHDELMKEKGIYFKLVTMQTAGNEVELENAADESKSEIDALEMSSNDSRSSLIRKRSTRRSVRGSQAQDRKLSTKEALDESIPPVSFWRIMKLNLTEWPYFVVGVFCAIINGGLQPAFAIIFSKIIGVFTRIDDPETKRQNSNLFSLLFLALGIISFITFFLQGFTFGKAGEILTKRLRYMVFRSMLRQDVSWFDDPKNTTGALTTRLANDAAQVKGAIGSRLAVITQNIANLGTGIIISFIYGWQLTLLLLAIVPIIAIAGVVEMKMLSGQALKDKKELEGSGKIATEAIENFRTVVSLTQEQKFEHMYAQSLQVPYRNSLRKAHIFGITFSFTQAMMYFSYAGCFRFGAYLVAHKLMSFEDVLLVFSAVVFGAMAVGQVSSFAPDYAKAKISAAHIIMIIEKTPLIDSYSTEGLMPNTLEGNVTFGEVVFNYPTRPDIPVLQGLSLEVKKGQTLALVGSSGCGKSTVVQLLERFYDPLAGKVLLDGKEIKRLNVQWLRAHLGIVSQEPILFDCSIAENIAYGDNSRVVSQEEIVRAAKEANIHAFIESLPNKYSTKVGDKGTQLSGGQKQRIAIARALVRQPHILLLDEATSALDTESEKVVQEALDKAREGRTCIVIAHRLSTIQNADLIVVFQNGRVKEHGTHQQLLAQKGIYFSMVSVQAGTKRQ

[2] = biological target: T1, ATP-dependent translocase ABCB1; test: Inhibition of P-glycoprotein-mediated Rhodamine-123 efflux in human MOLT4/DNR cells assessed as inhibition of P-glycoprotein efflux function at 0.3 uM incubated for 1 hr by flow cytometry
[3] = biological target: T1, ATP-dependent translocase ABCB1; test: Inhibition of P-glycoprotein-mediated Rhodamine-123 efflux in human MOLT4/DNR cells assessed as Rhodamine-123 accumulation incubated for 1 hr by flow cytometry
[4] = biological target: T1, ATP-dependent translocase ABCB1; test: Inhibition of P-glycoprotein-mediated Rhodamine-123 efflux in human MOLT4/DNR cells assessed as inhibition of P-glycoprotein efflux function at 10 uM incubated for 1 hr by flow cytometry

Compound	inhibition (INH) [1]	inhibition (INH) [2]	inhibition (INH) [3]	inhibition (INH) [4]
COc1ccc2cc1Oc1ccc(cc1)C[C@H]1c3cc(c(OC)cc3CCN1C)Oc1c(OC)c(OC)cc3c1[C@H](C2)N(C)CC3 [FANCHININ]	Active	Active	Dose-dependent effect	Active
COc1ccc2cc1Oc1ccc(cc1)C[C@H]1c3c(cc4c(c3Oc3cc5c(cc3OC)CCN(C)[C@@H]5C2)OCO4)CCN1C [CEPHARANTHINE]	Not Active			Active
COc1cc2c(cc1OC)[C@@H](Cc1ccc(O)cc1)N(C)CC2				Active
COc1cc2c3cc1Oc1c(OC)c(OC)cc4c1[C@@H](Cc1ccc(O)c(c1)Oc1ccc(cc1)C[C@@H]3N(C)CC2)N(C)CC4 [BERBAMINE]	Not Active	Not Active		Active
COc1cc2c(cc1OC)[C@@H](Cc1ccc(Oc3cc(C[C@@H]4c5cc(OC)c(OC)cc5CCN4C)ccc3O)cc1)N(C)CC2 [DAURICINE]				Active
COc1ccc2cc1Oc1ccc(cc1)C[C@H]1c3cc(c(OC)cc3CCN1C)Oc1c(O)c(OC)cc3c1[C@H](C2)N(C)CC3 [FANGCHINOLINE]	Not Active			Active
COc1ccc2cc1Oc1ccc(cc1)C[C@H]1c3cc(c(OC)cc3CCN1C)Oc1c(OC)c(OC)cc3c1[C@@H](C2)N(C)CC3	Not Active	Not Active		Active
